System: microglia
Assay: TNF-α production of LPS/IFN-γ-stimulated isolated microglia (Test Examples 1 to 3)
Format: cell-based, mouse
Conditions: peptides at 10 μM and 50 μM; FIG. 2
Protocol: Microglia were isolated from the mouse brain by the magnetic cell sorting method. Specifically, the brain removed from a mouse was treated with papain to obtain a brain tissue dispersion and the enzyme reaction was stopped. Subsequently, the dispersion was reacted to CD11b antibody (manufactured by Miltenyi Biotec), a common microglia marker magnetically labelled with superparamagnetic microbeads, to carry out magnetic separation whereby microglia were isolated. The isolated microglia cell was cultured for 12 hours in medium to which the above 336 dipeptides were added in a concentration of 50 μM each. Subsequently, 5 ng/ml of lipopolysaccharide (LPS, manufactured by SIGMA-ALDRICH) and 0.5 ng/ml of IFN-γ (manufactured by R&D system) were added thereto, the cell was further cultured for 12 hours and TNF-α contained in the culture supernatant was quantitatively determined using an ELISA kit (manufactured by eBioscience). […] Note that the results are average values of three consecutive data. Additionally, hereinafter the amino acids are shown in one-letter abbreviations. […] Note that, for the control, those cultured with no addition of the peptides were used as in Test Example 1. For comparison, the dipeptides having the same amino acid composition with different sequences, that it, VD and HL were also measured for the TNF-α production at different concentrations.

Q: For “TDVE: tetrapeptide having DV as the core sequence”, which “inflammation suppression effect against microglia (TNF-α)” value is on record?
A: the most intense

Source: US10434133B2, “Inflammation-suppressing composition including peptide” (KIRIN KABUSHIKI KAISHA, priority 2015, dated 2019)
